Experimental findings from PubChem BioAssay AID328 (DTP/NCI, 2004) are described below.

The test relates to BDF1 mice, P388 leukemia ip, median survival T/C. Put plainly: NCI In Vivo Anticancer Drug Screen. Data for tumor model P388 Leukemia (intraperitoneal) in B6D2F1 (BDF1) mice. The conditions noted are these: endpoint: median survival time, higher = longer survival. The method, boiled down:
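Compound-treated tumour-bearing mice were compared with vehicle-treated controls. Survival was recorded, and the value is the treated-group measurement divided by the control-group measurement (T/C).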

Where [1] appears, read: dose: 50.0 mg/kg/injection, schedule: Q01DX009 (ip), vehicle: saline with Tween-80.
Where [2] appears, read: dose: 100.0 mg/kg/injection, schedule: Q01DX009 (ip), vehicle: saline with Tween-80.
Setting [3] is: dose: 100.0 mg/kg/injection, schedule: Q04DX003 (ip), vehicle: saline with Tween-80.
The mark [4] stands for this setting: dose: 200.0 mg/kg/injection, schedule: Q01DX009 (ip), vehicle: saline with Tween-80.
Where [5] appears, read: dose: 200.0 mg/kg/injection, schedule: Q04DX003 (ip), vehicle: saline with Tween-80.
Where [6] appears, read: dose: 400.0 mg/kg/injection, schedule: Q04DX003 (ip), vehicle: saline with Tween-80.
The mark [7] stands for this setting: dose: 100.0 mg/kg/injection, schedule: Q01DX009 (ip), vehicle: saline.
The mark [8] stands for this setting: dose: 200.0 mg/kg/injection, schedule: Q01DX009 (ip), vehicle: saline.
[9] abbreviates: dose: 400.0 mg/kg/injection, schedule: Q01DX009 (ip), vehicle: saline.
Where [10] appears, read: dose: 400.0 mg/kg/injection, schedule: Q01DX009 (ip), vehicle: saline with Tween-80.

Several values for one entry are separate records, joined by “and”; a condition that tells them apart may be missing. Identical values can stand only once. Toxic doses and inconclusive results are not listed. Residues, ends and D or L forms follow the SMILES beside them. *: point of attachment. Bn = c1ccc(C*)cc1; For = O=C*

As to `C/C=C/C(=O)OCCC[N+](C)(C)C`, the T/C by setting is: (dose: 0.09 mg/kg/injection, schedule: Q01DX009 (ip), vehicle: saline) 95 % of control; (dose: 0.19 mg/kg/injection, schedule: Q01DX009 (ip), vehicle: saline) 92 % of control; (dose: 0.39 mg/kg/injection, schedule: Q01DX009 (ip), vehicle: saline) 96 % of control and 109 % of control; (dose: 0.78 mg/kg/injection, schedule: Q01DX009 (ip), vehicle: saline) 96 % of control and 101 % of control; (dose: 1.56 mg/kg/injection, schedule: Q01DX009 (ip), vehicle: saline) 96 % of control and 111 % of control; (dose: 3.12 mg/kg/injection, schedule: Q01DX009 (ip), vehicle: saline) 100 % of control and 105 % of control. The T/C (dose: 6.25 mg/kg/injection, schedule: Q01DX009 (ip), vehicle: saline) was 92 % of control.

As to `CN(C)c1ccc(/C=C/c2ccccn2)cc1`, the T/C runs as follows: (dose: 12.5 mg/kg/injection, schedule: Q01DX009 (ip), vehicle: saline with Tween-80) 95 % of control; (dose: 25.0 mg/kg/injection, schedule: Q01DX009 (ip), vehicle: saline with Tween-80) 95 % of control.

Take `CC(=O)N1C(=O)NC(=O)C1(C)c1cccs1` (stereo not given): the T/C by setting is: under setting [1], 109 % of control; under setting [2], 111 % of control; under setting [3], 100 % of control; under setting [4], 109 % of control; under setting [5], 90 % of control; under setting [6], 90 % of control.

For the compound `O=P(CCCl)(OCCCl)N1CCCCC1` (stereo not given), the T/C (dose: 50.0 mg/kg/injection, schedule: Q04DX003 (ip), vehicle: saline) is 104 % of control; the T/C under setting [7] was 104 % of control; the T/C (dose: 100.0 mg/kg/injection, schedule: Q04DX003 (ip), vehicle: saline) was 108 % of control; the T/C under setting [8] was 104 % of control; the T/C under setting [9] is 109 % of control.

Consider `N#Cc1cccc(/C=C/C=C\c2ccc([N+](=O)[O-])cc2)c1`, for which the T/C is 95 % of control (dose: 100.0 mg/kg/injection, schedule: Q01DX001 (ip), vehicle: Klucel (hydroxypropylcellulose) (HPC)); 90 % of control (dose: 200.0 mg/kg/injection, schedule: Q01DX001 (ip), vehicle: Klucel (hydroxypropylcellulose) (HPC)); 90 % of control (dose: 400.0 mg/kg/injection, schedule: Q01DX001 (ip), vehicle: Klucel (hydroxypropylcellulose) (HPC)).

As to `CNC(CCc1ccccc1)C(=O)O` (stereo not given), the T/C (dose: 50.0 mg/kg/injection, schedule: Q04DX003 (ip), vehicle: saline sonified) is 95 % of control; the T/C (dose: 100.0 mg/kg/injection, schedule: Q04DX003 (ip), vehicle: saline sonified) is 91 % of control; the T/C (dose: 200.0 mg/kg/injection, schedule: Q04DX003 (ip), vehicle: saline sonified) is 91 % of control.

Regarding `CC(C)CC(NC(=O)C(Cc1ccc(OCc2ccccc2)cc1)NC=O)C(=O)O` (stereo not given) (For-Tyr(Bn)-Leu-OH; configuration not given here), the T/C by setting is: under setting [1], 110 % of control; under setting [2], 95 % of control and 100 % of control (2×); (dose: 100.0 mg/kg/injection, schedule: Q01DX009 (ip), vehicle: sodium bicarbonate) 90 % of control; under setting [3], 105 % of control; under setting [4], 86 % of control and 95 % of control and 110 % of control; (dose: 200.0 mg/kg/injection, schedule: Q01DX009 (ip), vehicle: sodium bicarbonate) 105 % of control. Also, the T/C by setting is: under setting [5], 105 % of control; under setting [10], 90 % of control; under setting [6], 110 % of control.

On to `NC(=S)c1ccncc1`, for which the T/C by setting is: under setting [3], 86 % of control; under setting [5], 86 % of control; under setting [6], 90 % of control.

For `COc1ccc(/C(C#N)=C\c2ccnc3ccccc23)cc1`, the T/C is, setting by setting: (dose: 12.5 mg/kg/injection, schedule: Q01DX009 (ip), vehicle: other) 89 % of control; (dose: 25.0 mg/kg/injection, schedule: Q01DX009 (ip), vehicle: other) 93 % of control; (dose: 50.0 mg/kg/injection, schedule: Q01DX009 (ip), vehicle: other) 90 % of control; (dose: 200.0 mg/kg/injection, schedule: Q01DX009 (ip), vehicle: other) 100 % of control.

`COc1ccc2c(c1OC)C(=O)O[C@@H]2[C@H]1c2c(cc3c(c2OC)OCO3)CCN1C`: the T/C runs as follows: (dose: 31.3 mg/kg/injection, schedule: Q01DX010 (ip), vehicle: saline) 95 % of control; (dose: 62.5 mg/kg/injection, schedule: Q01DX010 (ip), vehicle: saline) 104 % of control; (dose: 125.0 mg/kg/injection, schedule: Q01DX010 (ip), vehicle: saline) 100 % of control; (dose: 250.0 mg/kg/injection, schedule: Q01DX010 (ip), vehicle: saline) 100 % of control.

Take `CC(C)(C)NC(=O)NCc1cccnc1`: the T/C runs as follows: under setting [3], 91 % of control; under setting [5], 95 % of control; under setting [6], 100 % of control.

On to `COc1ccc(C=NCCc2ccc(OC)c(OC)c2)cc1OC`, for which the T/C is, setting by setting: under setting [7], 97 % of control; under setting [8], 97 % of control; under setting [9], 105 % of control.

For `COc1cc(OC)cc(C2N(Cc3ccc(OC)c(OC)c3)CCN2Cc2ccc(OC)c(OC)c2)c1`, the T/C was 100 % of control under setting [2]; 100 % of control under setting [3]; 109 % of control under setting [4]; 100 % of control under setting [5]; 109 % of control under setting [10]; 115 % of control under setting [6].

`CC(=O)OC1CCC2(C)C3CCC4(C)C(=CCC5(C(=O)O)CCC(C)(C)CC45)C3(C)CCC2C1(C)C` (stereo not given): the T/C reads like this: (dose: 0.12 mg/kg/injection, schedule: Q01DX009 (ip), vehicle: alcohol) 111 % of control; (dose: 0.25 mg/kg/injection, schedule: Q01DX009 (ip), vehicle: alcohol) 106 % of control; (dose: 0.5 mg/kg/injection, schedule: Q01DX009 (ip), vehicle: alcohol) 116 % of control.

As for `CCN(CC)c1ccc(Cc2ccc(N(CC)CC)cc2Br)c(Br)c1`, the T/C reads like this: (dose: 100.0 mg/kg/injection, schedule: Q04DX003 (ip), vehicle: Klucel (hydroxypropylcellulose) (HPC)) 111 % of control; (dose: 200.0 mg/kg/injection, schedule: Q04DX003 (ip), vehicle: Klucel (hydroxypropylcellulose) (HPC)) 111 % of control; (dose: 400.0 mg/kg/injection, schedule: Q04DX003 (ip), vehicle: Klucel (hydroxypropylcellulose) (HPC)) 111 % of control.

For `CCCC(=O)NO`, the T/C (dose: 100.0 mg/kg/injection, schedule: Q01DX009 (ip), vehicle: saline sonified) is 100 % of control; the T/C (dose: 200.0 mg/kg/injection, schedule: Q01DX009 (ip), vehicle: saline sonified) was 100 % of control; the T/C (dose: 400.0 mg/kg/injection, schedule: Q01DX009 (ip), vehicle: saline sonified) is 100 % of control.

As to `Cc1cccc(-n2c(CC#N)n[nH]c2=S)c1`, the T/C under setting [1] is 96 % of control and the T/C under setting [4] was 100 % of control.

As for `O=P(N1CCOCC1)(N1CC1)N1CC1`, the T/C by setting is: (dose: 12.5 mg/kg/injection, schedule: Q01DX009 (ip), vehicle: saline) 251 % of control and 290 % of control; (dose: 25.0 mg/kg/injection, schedule: Q01DX009 (ip), vehicle: saline) 90 % of control.

For the compound `CCN1c2ccccc2CC(CCN(C(C)C)C(C)C)(C(N)=O)c2ccccc21` (stereo not given), the T/C (dose: 100.0 mg/kg/injection, schedule: Q04DX002 (ip), vehicle: saline with Tween-80) was 108 % of control.

As for `Cc1n(CC(C)C)c2c([n+]1C)C(=O)c1ccccc1C2=O`, the T/C runs as follows: (dose: 0.25 mg/kg/injection, schedule: Q01DX010 (ip), vehicle: saline) 90 % of control; (dose: 0.5 mg/kg/injection, schedule: Q01DX010 (ip), vehicle: saline) 90 % of control; (dose: 1.0 mg/kg/injection, schedule: Q01DX009 (ip), vehicle: saline) 105 % of control; (dose: 1.0 mg/kg/injection, schedule: Q01DX010 (ip), vehicle: saline) 90 % of control; (dose: 2.0 mg/kg/injection, schedule: Q01DX009 (ip), vehicle: saline) 120 % of control; (dose: 2.0 mg/kg/injection, schedule: Q01DX010 (ip), vehicle: saline) 120 % of control.

For the compound `Cc1cc(Cl)ccc1NC(=O)Oc1nc2ccccc2o1`, the T/C runs as follows: under setting [1], 123 % of control; under setting [2], 106 % of control; under setting [4], 117 % of control.

In the case of `CCOc1ccc(S(=O)(=O)c2ccc(C)cc2)c2c1no[n+]2[O-]`, the T/C (dose: 15.0 mg/kg/injection, schedule: Q01DX009 (ip), vehicle: saline with Tween-80) was 102 % of control.

`Oc1ccccc1-c1nnc2sc3c(Cl)c4nn5c(-c6ccccc6O)nnc5sc4c(Cl)c3nn12`: the T/C is, setting by setting: under setting [1], 98 % of control; under setting [2], 98 % of control; under setting [4], 96 % of control.
